Values of other authors in patent US20070225258A1, “COMPOSITIONS COMPRISING BISPHOSPHONATE AND AN ANTIFOLATE” (PROPRIUS PHARMACEUTICALS, INC., priority 2006, published 2007).

Test system: patients with RA

CN(Cc1cnc2nc(N)nc(N)c2n1)c1ccc(C(=O)N[C@@H](CCC(=O)O)C(=O)O)cc1 [methotrexate]
Proportion of RA patients in whom treatment is effective: effective in only one in three patients
